Laboratory results from PubChem BioAssay (NCI).
“And” between values parts separate entries of the source, which are not always exact repeats. Identical values can stand only once.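 Where inhibition never reached the appropriate level, the endpoint shown equals the highest concentration tested. Otherwise, values were interpolated linearly from a five-concentration, 48-hour dose response in 96-well plates. The concentration for 50% growth inhibition is given as GI50. The concentration for full growth arrest is given as TGI.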

Legend:
Experiment in all cases: NCI tumour cell line growth inhibition, 48 h
[1] = tested on: CAKI-1 renal
[2] = tested on: HCC-2998 colon
[3] = tested on: HL-60(TB) leukemia
[4] = tested on: HOP-92 NSCLC
[5] = tested on: M14 melanoma
[6] = tested on: OVCAR-5 ovarian
[7] = tested on: SF-539 CNS
[8] = tested on: SK-MEL-28 melanoma
[9] = tested on: SN12C renal
[10] = tested on: HCT-15 colon

Structure (SMILES)	TGI [1] [µM]	TGI [2]	TGI [3] [µM]	TGI [4]	TGI [5]	TGI [6]	TGI [7]	TGI [8]	TGI [9]	GI50 [1] [µM]	GI50 [2] [µM]	GI50 [10] [µM]	TGI [10] [µM]	GI50 [3] [µM]	GI50 [4] [µM]	GI50 [5] [µM]	GI50 [6] [µM]	GI50 [7] [µM]	GI50 [8] [µM]	GI50 [9] [µM]
Nn1c(=O)n(Cc2ccccc2)n(-c2ccccc2)c1=O	> 100	> 100 µM	> 100	> 100 µM	> 100 µM	> 100 µM	> 100 µM	> 100 µM	> 100 µM	–	–	–	–	–	–	–	–	–	–	–
Cc1ccc(C(=O)CN(/C=C/C(=O)C(F)(F)F)c2ccc(S(N)(=O)=O)cc2)cc1	> 100	> 100 µM	> 100	> 100 µM	> 100 µM	> 100 µM	> 100 µM	> 100 µM	> 100 µM	93	> 100	86	> 100	41.1	99.7	> 100	> 100	> 100	> 100	> 100
Oc1cccnc1CN1CCCCC1	> 100	> 100 µM	–	> 100 µM	> 100 µM	> 100 µM	> 100 µM	> 100 µM	> 100 µM	–	–	–	> 100	–	–	–	–	–	–	–
CN1C/C=C\CCOc2cccc(c2)-c2ccnc(n2)Nc2cccc(c2)C1	1.52	0.63 µM	0.103	0.227 µM	0.346 µM	–	0.227 µM	0.451 µM	1.45 µM	0.0373	0.0802	0.0435	1.96	0.0232	0.0349	0.0644	0.0369	0.0508	0.0641	0.0556
COc1cc(/C=C/c2cc(/C=C/c3ccc(O)c(OC)c3)n(C(=O)Nc3ccc(F)c(Cl)c3)n2)ccc1O	4.92	3.71 µM	0.88	5.89 µM	1.59 µM	6.87 µM	–	3.92 µM	–	0.35	0.639	0.25	3.34	0.31	1.03	0.114	1.82	–	0.52	–
COc1ccc(-c2n[nH]nc2-c2cc(OC)c(OC)c(OC)c2)cc1	> 56.4	19.5 µM	< 0.01	30.6 µM	17.8 µM	> 100 µM	–	–	> 100 µM	< 0.01	0.0189	< 0.01	> 100	< 0.01	< 0.0195	< 0.01	< 0.01	–	–	< 0.01
O=C(Cc1ccccc1)NN1C(=O)C(Cl)C1c1cc(Br)ccc1O (stereo unspecified)	60.7	> 100 µM	13.6	–	19 µM	> 100 µM	–	> 100 µM	> 100 µM	–	–	–	> 100	–	–	–	–	–	–	–
COc1cc(C(C)O)c[n+](CCc2c[nH]c3ccccc23)c1 (stereo unspecified)	> 100	> 100 µM	> 100	–	> 100 µM	–	> 100 µM	–	> 100 µM	–	–	–	> 100	–	–	–	–	–	–	–
CCOC(=O)C1=C(C)N(NC(=O)Nc2ccccc2)C(=O)C1=P(c1ccccc1)(c1ccccc1)c1ccccc1	> 100	> 100 µM	50.4	> 100 µM	> 100 µM	> 100 µM	53.3 µM	–	> 100 µM	–	–	–	> 100	–	–	–	–	–	–	–
C[C@@]12CC=C3c4nc(Nc5cccc(O)c5)sc4CC[C@]3(C)[C@H]1CC[C@]1(C)C(=O)CC[C@@H]21	3.28	–	6.48	5.32 µM	> 100 µM	7.26 µM	1.52 µM	–	–	1.7	–	1.38	3.33	2.35	1.93	2.97	2.58	0.387	–	–
CC(=O)CSCc1ccccn1	–	> 100 µM	64.5	> 100 µM	> 100 µM	> 100 µM	67.9 µM	> 100 µM	> 100 µM	–	–	–	> 100	–	–	–	–	–	–	–
C1=CC2SSSC2C1 (stereo unspecified)	–	> 100 µM	> 100	> 100 µM	> 100 µM	> 100 µM	> 100 µM	> 100 µM	> 100 µM	–	–	–	> 100	–	–	–	–	–	–	–
COC(=O)/C(=N\Nc1nnc(C)n1N)C(C#N)c1ccc(Cl)cc1 (stereo unspecified)	> 100	> 100 µM	–	> 100 µM	> 100 µM	> 100 µM	> 100 µM	> 100 µM	> 100 µM	–	–	–	> 100	–	–	–	–	–	–	–
COc1cc2ncnc(Nc3ccc(C)c(O)c3)c2cc1OC	> 17.5	> 25 µM	> 25	–	> 25 µM	> 25 µM	> 23 µM	> 25 µM	> 25 µM	1.99	> 25	14.1	> 25	> 25	–	18.8	16.2	5.98	> 25	6.46
O=C1CCN2C(=O)CCN12	> 100	–	> 100	> 100 µM	> 100 µM	> 100 µM	–	> 100 µM	> 100 µM	–	–	–	–	–	–	–	–	–	–	–
COC1=C(C)C(=O)c2c(c(COC(N)=O)c3n2CC2C3N2C)C1=O (stereo unspecified)	0.059	–	0.17	0.453 µM	0.0641 µM	0.324 µM	0.12 µM	0.173 µM	0.221 µM	–	–	–	0.0719	–	–	–	–	–	–	–
O=S(=O)(N=S(c1ccccc1)c1ccccc1)c1ccccc1	–	–	> 100	> 100 µM	> 100 µM	> 100 µM	> 100 µM	> 100 µM	> 100 µM	–	–	–	> 100	–	–	–	–	–	–	–
COc1ccc(/C=C/c2ccnc3ccccc23)c(OC)c1	> 10	> 10 µM	6.91	–	> 10 µM	> 10 µM	> 10 µM	> 10 µM	> 10 µM	–	–	–	> 10	–	–	–	–	–	–	–
COC(=O)C1=C(C)N(NC(=O)OC(C)(C)C)C(=O)C1=P(c1ccccc1)(c1ccccc1)c1ccccc1	> 100	> 100 µM	> 100	> 100 µM	> 100 µM	> 100 µM	> 100 µM	–	> 100 µM	–	–	–	> 100	–	–	–	–	–	–	–

Structure (SMILES)	TGI [1] [µM]	TGI [2]	TGI [3] [µM]	TGI [4]	TGI [5]	TGI [6]	TGI [7]	TGI [8]	TGI [9]	GI50 [1] [µM]	GI50 [2] [µM]	GI50 [10] [µM]	TGI [10] [µM]	GI50 [3] [µM]	GI50 [4] [µM]	GI50 [5] [µM]	GI50 [6] [µM]	GI50 [7] [µM]	GI50 [8] [µM]	GI50 [9] [µM]
Clc1ccc(C2=Nn3c(COc4ccccc4Cl)nnc3SC2)c(Cl)c1	76.7	–	75.4	> 100 µM	41.4 µM	87.1 µM	–	53.9 µM	–	25.9	–	54.6	> 100	19.4	39	16.4	35.1	–	17	–
Cc1cn(C2CC(O)C(CO)O2)c(=O)n2nnnc12 (stereo unspecified)	–	> 100 µM	> 100	> 100 µM	> 100 µM	> 100 µM	> 100 µM	> 100 µM	–	–	–	–	> 100	–	–	–	–	–	–	–
Cc1cc(Cl)ccc1N=C1NC(=O)C(CC(=O)Nc2ccc([N+](=O)[O-])cc2[N+](=O)[O-])S1 (stereo unspecified)	54.3	> 100 µM	–	–	59.8 µM	86.8 µM	59.1 µM	> 100 µM	90.7 µM	–	–	–	> 100	–	–	–	–	–	–	–
CC(=O)/C(C)=N/NC(=O)c1ccccc1O	> 100	> 100 µM	–	> 10 µM	> 100 µM	> 100 µM	> 10 µM	> 100 µM	> 100 µM	> 100	> 100	> 10	> 100	–	–	> 100	> 100	–	> 100	> 100
CCCN1CCC(=O)N(CCC(F)(F)C(F)(F)C(F)(F)C(F)(F)C(F)(F)C(F)(F)F)C1=S	> 100	> 100 µM	> 100	> 100 µM	> 100 µM	> 100 µM	> 100 µM	> 100 µM	> 100 µM	–	–	–	–	–	–	–	–	–	–	–
Cc1cc(C(=O)Nc2ncc(Cc3cccc(C(F)(F)F)c3)s2)c2ccccc2n1	> 100	> 100 µM	5.38	> 100 µM	> 100 µM	–	–	> 100 µM	> 100 µM	2.13	1.11	0.084	> 100	2.21	2.56	0.185	–	–	0.79	3.62
Cc1cccc(N2CCN(C(=S)c3ccc4c(c3)OCO4)CC2)c1	> 100	> 100 µM	19	> 100 µM	> 100 µM	> 100 µM	> 100 µM	> 100 µM	–	0.485	3.76	0.625	> 100	0.659	24.6	0.463	5.41	1.5	2.19	–
N#CCN1C(=O)c2cccc3cc([N+](=O)[O-])cc(c23)C1=O	–	> 100 µM	56.4	> 100 µM	> 100 µM	> 100 µM	> 100 µM	> 100 µM	> 100 µM	–	–	–	> 100	–	–	–	–	–	–	–
Clc1nc(Cl)c(Cl)c(-c2ccccc2)n1	–	78 µM	> 100	–	3.72 µM	42.1 µM	31.5 µM	32.8 µM	53.9 µM	–	–	–	> 100	–	–	–	–	–	–	–
CC1CC[C@]2(C(=O)O)CCC3(C)C(=CC(=O)C4[C@@]5(C)CCC(=O)C(C)(C)C5CC[C@]43C)[C@@H]2[C@H]1C (stereo partly specified)	> 100	–	24.7	73.2 µM	> 100 µM	–	44.1 µM	42.9 µM	> 100 µM	–	–	–	–	–	–	–	–	–	–	–
Cc1cc(S(=O)(=O)Nc2nnc(-c3ccccc3)c(-c3ccccc3)n2)c(SCC(N)=O)cc1Cl	> 100	–	> 100	–	> 100 µM	> 100 µM	30.1 µM	> 100 µM	> 100 µM	> 100	–	> 100	> 100	53.3	–	56.5	> 100	0.671	72.8	62.3
COc1ccccc1CCc1cc(OC)c(OC)c(OC)c1	> 100	–	39.3	> 100 µM	> 100 µM	51.3 µM	> 100 µM	> 100 µM	> 100 µM	–	–	–	> 100	–	–	–	–	–	–	–
CC(C)(C)c1cc(Br)c(O)c(CN(Cc2cc(C(C)(C)C)cc(Br)c2O)C2CCCCC2)c1	24.7	–	35.8	28.8 µM	25.5 µM	29.1 µM	–	28.9 µM	28 µM	–	–	–	25.4	–	–	–	–	–	–	–
COc1cc2nc3cc([N+](=O)[O-])ccc3c(NCCCNCCO)c2cc1OC	16.7	–	4.32	0.438 µM	0.437 µM	0.899 µM	0.478 µM	–	–	2.62	–	3.59	19.5	0.463	0.148	0.205	0.22	0.191	–	–
O=C1C2C3C=C4c5ccccc5N(c5ccccc5)C4(C2C(=O)N1Cc1ccccc1)C1C(=O)N(Cc2ccccc2)C(=O)C31 (stereo unspecified)	–	> 100 µM	> 100	> 100 µM	–	> 100 µM	> 100 µM	> 100 µM	> 100 µM	–	–	–	> 100	–	–	–	–	–	–	–
Oc1ccccc1C(Sc1nc2ccccc2s1)Sc1nc2ccccc2s1	> 100	> 100 µM	> 100	95 µM	> 100 µM	> 100 µM	–	> 100 µM	> 100 µM	–	–	–	> 100	–	–	–	–	–	–	–
COc1cccc2c1C(=O)c1c(O)c3c(c(O)c1C2=O)C[C@@](O)(C(C)=O)C[C@@H]3OC1OC(C)C(O)C(N)C1Br (stereo partly specified)	0.257	0.327 µM and 0.489 µM	–	0.422 µM and 0.474 µM	0.257 µM and 0.669 µM	0.663 µM and 0.704 µM	0.701 µM and 0.388 µM	1.28 µM and 1.32 µM	0.307 µM and 1.12 µM	–	0.168	–	0.78	–	0.0602	0.0535	0.0554	0.0419	0.22	0.018
CCOC(=O)c1c(C)n(Cc2ccc(Cl)cc2Cl)c2c1c(CN(C)C)c(O)c1[nH]cnc12	37.9	–	8.33	13.3 µM	43.9 µM	–	36.9 µM	41 µM	28.6 µM	18.4	–	15.5	28.9	2.01	2.74	24.2	–	20.2	20.9	15.1
Cc1ccn2c(c1)nc1nc3ccccc3nc12	> 100	–	> 100	> 100 µM	> 100 µM	> 100 µM	> 100 µM	> 100 µM	–	–	–	–	> 100	–	–	–	–	–	–	–
